Measurements as given in US10316017B2, “COT modulators and methods of use thereof” (Gilead Sciences, Inc., priority 2015, dated 2019).
pIC50: −log10 of the molar value.

Target: T1, human Cot catalytic domain (30-397 amino acids) (Homo sapiens, UniProt P41279)
T1 construct: Purified recombinant human Cot catalytic domain (30-397 amino acids) was purchased from Cama Biosciences; purchased Cama Biosciences (so in the source)
Test: High Throughput Cot Biochemical Assay (KinEASE TR-FRET)
Conditions: Cot KinEASE TR-FRET, 400 μM ATP; read-out: IC50 HTRF
Method in brief: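 First, purified human Cot (aa 30-397) at 5 nM phosphorylates an XL665-labeled STK3 peptide (1 μM) at 400 μM ATP, pH 7.0, 0.1% DMSO. Then a europium-conjugated phospho-specific antibody binds the product, giving the TR-FRET signal.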

T1 sequence (P41279 30-397): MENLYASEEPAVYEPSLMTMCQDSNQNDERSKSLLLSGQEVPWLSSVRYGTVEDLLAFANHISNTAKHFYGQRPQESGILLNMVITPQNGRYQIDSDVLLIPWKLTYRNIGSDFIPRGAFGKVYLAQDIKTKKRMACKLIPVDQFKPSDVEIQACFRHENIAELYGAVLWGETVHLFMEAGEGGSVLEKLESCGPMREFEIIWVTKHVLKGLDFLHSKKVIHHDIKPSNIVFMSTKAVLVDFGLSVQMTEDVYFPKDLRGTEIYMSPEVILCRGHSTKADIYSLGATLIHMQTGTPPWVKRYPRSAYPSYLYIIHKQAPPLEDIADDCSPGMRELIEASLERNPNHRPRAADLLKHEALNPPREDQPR

Row | SMILES | pIC50
1 | N#Cc1cnc2c(Cl)cc(NC(c3ccc(F)c(F)c3)c3cn(C4CCNCC4)nn3)cc2c1Nc1ccc(F)c(Cl)c1 (stereo not shown) [Example 900, 8-chloro-4-((3-chloro-4-fluorophenyl)amino)-6-(((3,4-difluorophenyl)(1-(piperidin-4-yl)-1H-1,2,3-triazol-4-yl)methyl)amino)quinoline-3-carbonitrile] | 7.85
2 | CCN1CCC(n2cc(C(Nc3cc(Cl)c4ncc(C#N)c(Nc5ccc(F)c(Cl)c5)c4c3)c3ccc(F)c(F)c3)nn2)CC1 (stereo not shown) [Example 901, 8-chloro-4-((3-chloro-4-fluorophenyl)amino)-6-(((3,4-difluorophenyl)(1-(1-ethylpiperidin-4-yl)-1H-1,2,3-triazol-4-yl)methyl)amino)quinoline-3-carbonitrile] | 7.96
3 | COc1cccc(C(Nc2cc(Cl)c3ncc(C#N)c(Nc4ccc(F)c(Cl)c4)c3c2)c2cn(C3CCNCC3)nn2)c1 (stereo not shown) [Example 903, 8-chloro-4-((3-chloro-4-fluorophenyl)amino)-6-(((3-methoxyphenyl)(1-(piperidin-4-yl)-1H-1,2,3-triazol-4-yl)methyl)amino)quinoline-3-carbonitrile] | 8.15
4 | N#Cc1cnc2c(Cl)cc(NC(c3cccc(F)c3)c3cn(C4CCN(C(=O)OCc5ccccc5)CC4)nn3)cc2c1Nc1ccc(F)c(Cl)c1 (stereo not shown) [Example 905, benzyl 4-(4-(((8-chloro-4-((3-chloro-4-fluorophenyl)amino)-3-cyanoquinolin-6-yl)amino)(3-fluorophenyl)methyl)-1H-1,2,3-triazol-1-yl)piperidine-1-carboxylate] | < 6.00
5 | N#Cc1cnc2c(Cl)cc(NC(c3cccc(F)c3)c3cn(C4CCNCC4)nn3)cc2c1Nc1ccc(F)c(Cl)c1 (stereo not shown) [Example 906, 8-chloro-4-((3-chloro-4-fluorophenyl)amino)-6-(((3-fluorophenyl)(1-(piperidin-4-yl)-1H-1,2,3-triazol-4-yl)methyl)amino)quinoline-3-carbonitrile] | 8.10
6 | CCN1CCC(n2cc(C(Nc3cc(Cl)c4ncc(C#N)c(Nc5ccc(F)c(Cl)c5)c4c3)c3ccc(F)cc3)nn2)CC1 (stereo not shown) [Example 908, 8-chloro-4-((3-chloro-4-fluorophenyl)amino)-6-(((1-(1-ethylpiperidin-4-yl)-1H-1,2,3-triazol-4-yl)(4-fluorophenyl)methyl)amino) quinoline-3-carbonitrile] | 8.30

The remaining lines, values ahead:

Row | pIC50 | SMILES
7 | < 6.00 | COc1cccc(C(Nc2cc(Cl)c3ncc(C#N)c(Nc4ccc(F)c(Cl)c4)c3c2)c2cn(C3CCN(C(=O)OCc4ccccc4)CC3)nn2)c1 (stereo not shown) [Example 902, benzyl 4-(4-(((8-chloro-4-((3-chloro-4-fluorophenyl)amino)-3-cyanoquinolin-6-yl)amino)(3-methoxyphenyl)methyl)-1H-1,2,3-triazol-1-yl)piperidine-1-carboxylate]
8 | 8.30 | CCN1CCC(n2cc(C(Nc3cc(Cl)c4ncc(C#N)c(Nc5ccc(F)c(Cl)c5)c4c3)c3cccc(OC)c3)nn2)CC1 (stereo not shown) [Example 904, 8-chloro-4-((3-chloro-4-fluorophenyl)amino)-6-(((1-(1-ethylpiperidin-4-yl)-1H-1,2,3-triazol-4-yl)(3-methoxyphenyl)methyl)amino) quinoline-3-carbonitrile]
9 | < 6.00 | N#Cc1cnc2c(Cl)cc(NC(c3ccc(Cl)c(Cl)c3)c3cn(C4CCN(C(=O)OCc5ccccc5)CC4)nn3)cc2c1Nc1ccc(F)c(Cl)c1 (stereo not shown) [Example 909, benzyl 4-(4-(((8-chloro-4-((3-chloro-4-fluorophenyl)amino)-3-cyanoquinolin-6-yl)amino)(3,4-dichlorophenyl)methyl)-1H-1,2,3-triazol-1-yl)piperidine-1-carboxylate]
10 | 7.28 | N#Cc1cnc2c(Cl)cc(NC(c3ccc(Cl)c(Cl)c3)c3cn(C4CCNCC4)nn3)cc2c1Nc1ccc(F)c(Cl)c1 (stereo not shown) [Example 910, 8-chloro-4-((3-chloro-4-fluorophenyl)amino)-6-(((3,4-dichlorophenyl)(1-(piperidin-4-yl)-1H-1,2,3-triazol-4-yl)methyl)amino)quinoline-3-carbonitrile]
